{"source": "paper PMC5828182", "about": "“Inhibition of nuclear factor of activated T cells (NFAT) c3 activation attenuates acute lung injury and pulmonary edema in murine models of sepsis” (Oncotarget, 2018)", "key": {"[1]": {"system": "NFATc3−/− and wild type mice, severe CLP sepsis", "assay": "survival after severe (lethal) CLP", "format": "in vivo, mouse", "protocol": "Figure 5 NFATc3^−/− mice show improved arterial Oxygen saturation and survival compared to wild type mice (A) NFATc3^−/− and wild type mice (N = 5) were injected with 15 mg/kg LPS i.p and the arterial oxygen saturation was measured using STARR Life Sciences Corp. Pulse Oximeter. (B–C) NFATc3^−/− and wild type mice (N = 5 sham control group; N = 10 CLP group) were subjected to severe CLP, maintained on regular or imipenem monohydrate supplemented water and the survival was monitored over a period of 96 h. A^* p ≤ 0.001 WT-LPS vs. WT-Control; ^** p ≤ 0.01 NFATc3^−/− LPS vs. WT-LPS.\nCecal ligation puncture (CLP) sepsis models were established according to Cuenca et al.. In an anesthetized mouse, the cecum is exposed and ligated below ileo-cecal valve and two perforations were made across the cecum using 21G needle. The cecum is then compressed to express minute amount of fecal material. To establish moderate CLP sepsis the cecum was ligated at less than 1.0 cm from the distal end and for severe sepsis about 2.0 cm of the cecum from distal end was ligated. Pulmonary edema, arterial oxygenation, and inflammation were evaluated in moderate CLP sepsis models. […] LPS (15 mg/kg) or the same volume of normal saline was administered into intraperitoneal cavity of WT or NFATc3^−/− mice and arterial oxygenation was measured by pulse oximetry. […]"}, "[2]": {"system": "plaque psoriasis", "settings": "cited from earlier work", "description": "(§1) Research efforts to identify NFAT inhibitors span over the last two decades but so far none of them performed well in the clinical trials."}, "[3]": {"system": "calcineurin", "settings": "derivative of cyclosporine; cited from earlier work", "description": "as §1"}, "[4]": {"system": "NFAT", "settings": "cited from earlier work", "description": "as §1"}, "[5]": {"system": "NFAT dependent gene expression", "settings": "liver allograft patients, after 8–12 months; cited from earlier work"}, "[6]": {"system": "islet allografts between BL/6 and C3H/HeN mouse strains", "settings": "BL/6 and C3H/HeN mice; cited from earlier work"}, "[7]": {"system": "experimental colitis model in mice", "settings": "cited from earlier work"}, "[8]": {"system": "diabetic db/db mice", "settings": "cited from earlier work"}, "[9]": {"system": "mouse models of Alzheimer's disease", "settings": "mice; cited from earlier work"}}}
{"compound": "C[C@@H](O)[C@H]1C(=O)N2C(C(=O)O)=C(SCCN=CN)C[C@H]12", "note": "[imipenem, imipenem monohydrate]", "values": [{"measurement": "survival", "setting": "[1]; NFATc3−/− mice, imipenem in drinking water, monitored over 96 h, N = 10 CLP group", "result": 60, "unit": "%"}, {"measurement": "lethality / survival of WT mice", "setting": "[1]; WT mice, imipenem (broad-spectrum antibiotic) in drinking water, 96 h", "result": "not improved any further"}]}
{"compound": "C=C/C=C/C[C@@H](C)[C@@H](O)[C@H]1C(=O)N[C@@H](CC)C(=O)N(C)CC(=O)N(C)[C@@H](CC(C)C)C(=O)N[C@@H](C(C)C)C(=O)N(C)[C@@H](CC(C)C)C(=O)N[C@@H](C)C(=O)N[C@H](C)C(=O)N(C)[C@@H](CC(C)C)C(=O)N(C)[C@@H](CC(C)C)C(=O)N(C)[C@@H](C(C)C)C(=O)N1C", "note": "[ISA247]", "values": [{"measurement": "phase III outcome", "setting": "[2]", "result": "did not result in to any commercial products so far"}, {"measurement": "calcineurin inhibition", "setting": "[3]", "result": "more potent and effectively inhibited Calcineurin"}]}
{"compound": "O=c1c(O)c(-c2ccc(O)cc2)oc2cc(O)cc(O)c12", "note": "[kaempferol]", "values": [{"measurement": "NFAT inhibition", "setting": "[4]", "result": "variable degree of NFAT inhibition"}]}
{"compound": "C=CC[C@@H]1/C=C(\\C)C[C@H](C)C[C@H](OC)[C@H]2O[C@@](O)(C(=O)C(=O)N3CCCC[C@H]3C(=O)O[C@H](/C(C)=C/[C@@H]3CC[C@@H](O)[C@H](OC)C3)[C@H](C)[C@@H](O)CC1=O)[C@H](C)C[C@@H]2OC", "note": "[Tacrolimus]", "values": [{"measurement": "NFAT dependent gene expression", "setting": "[5]", "result": "increased NFAT dependent gene expression"}]}
{"compound": "Cc1cc2c(C(C)C)c(O)c(O)c(C=O)c2c(O)c1-c1c(C)cc2c(C(C)C)c(O)c(O)c(C=O)c2c1O", "note": "[gossypol]", "values": [{"measurement": "NFAT inhibition", "setting": "[4]", "result": "variable degree of NFAT inhibition"}]}
{"compound": "11R-VIVIT", "values": [{"measurement": "immunosuppression in islet allografts", "setting": "[6]", "result": "improved immunosuppression"}, {"measurement": "effect in experimental colitis", "setting": "[7]", "result": "protective effect"}, {"measurement": "albuminuria", "setting": "[8]", "result": "markedly attenuates"}, {"measurement": "mesangial matrix expansion and podocyte injury", "setting": "[8]", "result": "alleviated"}, {"measurement": "microgliosis and Amyloid β peptide (Aβ) plaque load", "setting": "[9]", "result": "attenuated"}]}
{"compound": "COc1cc(C[C@H]2C(=O)OC[C@@H]2Cc2ccc(OC)c(OC)c2)ccc1O", "note": "[Arctigenin]", "values": [{"measurement": "NFAT inhibition", "setting": "[4]", "result": "variable degree of NFAT inhibition"}]}
